This passage reports IC50 results from US10118930B2, “Piperidinylpyrazolopyrimidinones and their use” (BAYER PHARMA AKTIENGESELLSCHAFT, priority 2015, dated 2018).

Molecules are shown by their SMILES. Counter-ions that a name gives are not always drawn.

The test relates to clot lysis (fibrinolysis) in diluted human citrated plasma, tPA-induced. Nature of the test: Plasma-based clot lysis assay (5%). It is filed as biochemical. The conditions noted are these: human citrated platelet-poor plasma 5%, fibrinogen 3 μM, CaCl2 10 mM, tPA 0.2 nM, 37° C., OD at 405 nm. The essentials: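 Compounds added to 5% platelet-poor citrated human plasma with 3 μM fibrinogen in 20 mM HEPES, 150 mM NaCl, 0.01% Brij, pH 7. Clotting and lysis started with 10 mM CaCl2 and 0.2 nM tPA at 37° C. IC50 derived by comparing time courses with a blank control reaction.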

Consider `COc1cccc(-c2noc(-c3cnn4c(C5CCNCC5)cc(=O)[nH]c34)n2)c1` [Example 125, 3-[3-(3-Methoxyphenyl)-1,2,4-oxadiazol-5-yl]-7-(piperidin-4-yl)pyrazolo[1,5-a]pyrimidin-5 (4H)-one hydrochloride], for which half-maximal inhibition (IC50) was put at 0.04 µM.

The molecule `Cc1ccc(-c2noc(-c3cnn4c(C5CCNCC5)cc(=O)[nH]c34)n2)c(C)c1` [Example 127, 3-[3-(2,4-Dimethylphenyl)-1,2,4-oxadiazol-5-yl]-7-(piperidin-4-yl)pyrazolo[1,5-a]pyrimidin-5(4H)-one hydrochloride] came in with an IC50 of 0.062 µM.

Molecule `Cc1ccc(-c2noc(-c3cnn4c(C5CCNCC5)cc(=O)[nH]c34)n2)c(C(F)(F)F)c1` [Example 128, 3-{3-[4-Methyl-2-(trifluoromethyl)phenyl]-1,2,4-oxadiazol-5-yl}-7-(piperidin-4-yl)pyrazolo[1,5-a]pyrimidin-5(4H)-one hydrochloride] had a 50% inhibitory concentration (IC50) of 0.11 µM.

Take `Cc1ccc(-c2noc(-c3cnn4c(C5CCNCC5)cc(=O)[nH]c34)n2)c(Cl)c1` [Example 130, 3-[3-(2-Chloro-4-methylphenyl)-1,2,4-oxadiazol-5-yl]-7-(piperidin-4-yl)pyrazolo[1,5-a]pyrimidin-5(4H)-one hydrochloride]: the concentration for half-maximal inhibition (IC50) was 0.041 µM.

The molecule `O=c1cc(C2CCNCC2)n2ncc(-c3nc(-c4cccc(Cl)c4F)no3)c2[nH]1` [Example 132, 3-[3-(3-Chloro-2-fluorophenyl)-1,2,4-oxadiazol-5-yl]-7-(piperidin-4-yl)pyrazolo[1,5-a]pyrimidin-5(4H)-one hydrochloride] displayed an IC50 of 0.035 µM.

On to `O=c1cc(C2CCNCC2)n2ncc(-c3nc(-c4cccc(Cl)n4)no3)c2[nH]1` [Example 133, 3-[3-(6-Chloropyridin-2-yl)-1,2,4-oxadiazol-5-yl]-7-(piperidin-4-yl)pyrazolo[1,5-a]pyrimidin-5(4H)-one hydrochloride], for which the IC50 is 0.039 µM.

On to `O=c1cc(C2CCNCC2)n2ncc(-c3nc(-c4ccc(C(F)(F)F)c(F)c4)no3)c2[nH]1` [Example 134, 3-{3-[3-Fluoro-4-(trifluoromethyl)phenyl]-1,2,4-oxadiazol-5-yl}-7-(piperidin-4-yl)pyrazolo[1,5-a]pyrimidin-5(4H)-one hydrochloride], for which it took 0.043 µM to reach half-maximal inhibition (IC50).

Molecule `O=c1cc(C2CCNCC2)n2ncc(-c3nc(-c4ccc(C(F)(F)F)cc4Cl)no3)c2[nH]1` [Example 136, 3-{3-[2-Chloro-4-(trifluoromethyl)phenyl]-1,2,4-oxadiazol-5-yl}-7-(piperidin-4-yl)pyrazolo[1,5-a]pyrimidin-5(4H)-one hydrochloride] came in with an IC50 of 0.043 µM.

The molecule `O=c1cc(C2CCNCC2)n2ncc(-c3nc(-c4cc(Cl)ccc4F)no3)c2[nH]1` [Example 137, 3-[3-(5-Chloro-2-fluorophenyl)-1,2,4-oxadiazol-5-yl]-7-(piperidin-4-yl)pyrazolo[1,5-a]pyrimidin-5(4H)-one hydrochloride] yielded a half-maximal inhibitory concentration (IC50) of 0.031 µM.

On to `Cc1cc(C(F)(F)F)ccc1-c1noc(-c2cnn3c(C4CCNCC4)cc(=O)[nH]c23)n1` [Example 139, 3-{3-[2-Methyl-4-(trifluoromethyl)phenyl]-1,2,4-oxadiazol-5-yl}-7-(piperidin-4-yl)pyrazolo[1,5-a]pyrimidin-5(4H)-one hydrochloride], for which the IC50 was 0.041 µM.

`Cc1c(Cl)cccc1-c1noc(-c2cnn3c(C4CCNCC4)cc(=O)[nH]c23)n1` [Example 140, 3-[3-(3-Chloro-2-methylphenyl)-1,2,4-oxadiazol-5-yl]-7-(piperidin-4-yl)pyrazolo[1,5-a]pyrimidin-5(4H)-one hydrochloride] came in with an IC50 of 0.13 µM.

`Cc1ccc(Cl)cc1-c1noc(-c2cnn3c(C4CCNCC4)cc(=O)[nH]c23)n1` [Example 141, 3-[3-(5-Chloro-2-methylphenyl)-1,2,4-oxadiazol-5-yl]-7-(piperidin-4-yl)pyrazolo[1,5-a]pyrimidin-5(4H)-one hydrochloride] showed a 50% inhibitory concentration (IC50) of 0.074 µM.
